Source: patent US20150284683A1, “METHOD, COMBINATION AND/OR COMPOSITION FOR INDUCING CARDIOMYOCYTE DIFFERENTATION” (SINGAPORE HEALTH SERVICES LTD, priority 2012, published 2015)

Key:
Format in all cases: cell-based, human
hiPSC C2 cell line = experiment: Embryoid body (EB) cardiac differentiation, beating EBs, hiPSC C2
Method: (§1) Human ES cells (H9; Wicell, USA) and iPS cells (MSnviPSNF2 (C2) and MSnviPSNF3 (C3); both described in Mehta et al., 2011) were maintained on 1% matrigel (BD Biosciences, CA, USA) and grown in chemically defined mTeSR1 medium (Stem Cell Technologies, VA, Canada). Differentiated areas (<10%) were manually removed periodically with a scraper and prior to passaging. Pluripotent stem cells were subsequently washed with DMEM-F12 (Invitrogen, CA, USA) and incubated with 1 mg/ml dispase (Stem Cell Technologies, VA, Canada) for 5-7 minutes. Subsequently, cells colonies were washed using DMEM-F12 and carefully cut into small clumps of approximately 50-70 μm in size before being scrapped from the surface of the culture dishes. […]
(§2) Subsequently, addition of different small molecules (components) were carried out at various stages of differentiation, either alone or in combination with at least one other component (FIG. 1): SB 203580 daily from day 2 through to day 8 from EB induction; Wnt modulator IWP4 daily from day 4 through to day 8 from EB induction, CSA daily from day 4 through to day 8 from EB induction, and ROS activator H2O2 on day 8 (15 min prior to plating). […] All EBs were evaluated morphologically under the microscope at 4× magnification for 10-15 seconds. […]

H3-Nkx2.5-GFP line [1] = experiment: Spin EB contraction during protocol standardization (Example 2); conditions: only 10 uM SB203580; EBs of 2,500 to 7,500 cells
Method: Briefly, hiPSC/hESC lines were pre-treated with 10 μM Y27632 (Stem Cell Technologies, VA, Canada) for 4 h before dissociating them to single cells with. Accutase (Stem Cell Technologies, VA, Canada). Cells were aggregated in spin EBs of 5000 cells/EB in AggreWell™ 800 (Stem Cell Technologies, VA, Canada) in media A (mTesR1: DMEM-F12-B27 (1:1) with 4 mg/mL PVA) with Ascorbic acid (284 μM) and BMP4 ([…]) and centrifuged at 300 g for 5 min and incubated overnight. […] […] […] EBs were plated on day 8 in EB2 medium (DMEM-F12 with 2% FBS) on 0.1% gelatin coated dishes. Beating areas were clearly observed between day 10-14 depending on different cell lines. Beating areas were manually dissected out after day 14 of differentiation and utilized for all experiments.
To maintain consistency in differentiation efficiency, an EB based protocol was utilised to recapitulate early cardiac development that hinges on stage-specific activation and inhibition′ of Wnt/β-catenin along with BMP modulation. All initial experiments were performed using H3-Nkx2.5-GFP line to standardize the protocol. Spin EBs of different sizes (1,000, 2,500, 5,000, 7,500 and 10,000 cells/EB) were made and it was observed that EBs of 2,500 to 7,500 cells gave contracting cardiomyocytes by day 14-15 using only 10 uM SB203580 (FIG. 11B; Non-treated), with highest efficiencies with 5,000 cell EBs. Next. […]

hESC (H9) cell line = experiment: Embryoid body (EB) cardiac differentiation, beating EBs, hESC H9; conditions: SB203580 5 μM day 2 to day 8
Method: as §1, §2

hiPSC C3 cell line = experiment: Embryoid body (EB) cardiac differentiation, beating EBs, hiPSC C3
Method: as §1, §2

H3-Nkx2.5-GFP line [2] = experiment: Real-time PCR gene expression during standardization of differentiation (Example 2); conditions: Treated S1+S2+VEGF
Method: For real-time reverse-transcription polymerase chain reaction (qRT-PCR) analysis, RNA was isolated with the RNeasy kit (Qiagen GmbH, Hilden, Germany). One μg of total RNA was converted to complementary DNA. by Superscript III first-strand synthesis system (Invitrogen, CA, USA). cDNA template (5 ng) was used from each sample and SYBR green real-time PCR studies were performed using Quantifast kit (Qiagen GmbH, Hilden, Germany) and primer (Supplementary table 1) as per the kit instructions. Samples were cycled with RotorGene Q (Qiagen GmbH, Hilden, Germany) as follows: 5 minutes at 95° C., followed by 40 cycles of 10 seconds at 95° C. and 30 second extension at 60° C. All experiments were performed in triplicates. Relative quantification was calculated according to the ΔΔCt method for quantitative real-time PCR (using an endogenous control gene, GAPDH). For each gene, the expression at a specific day was then normalized by its baseline values. Heatmaps were generated from Ct values using Genesis software.
To maintain consistency in differentiation efficiency, an EB based protocol was utilised to recapitulate early cardiac development that hinges on stage-specific activation and inhibition′ of Wnt/β-catenin along with BMP modulation. All initial experiments were performed using H3-Nkx2.5-GFP line to standardize the protocol. […]

[3] = SB203580 5 μM day 2-8, without or with CSA 3 μg/ml day 4-8, 21 days
[4] = titration 1, 3, 5, 7 μM with SB203580 5 μM and CSA 3 μg/ml

## C[S+]([O-])c1ccc(-c2nc(-c3ccc(F)cc3)c(-c3ccncc3)[nH]2)cc1 (centres unmarked) [SB203580, 4-[4-(4-fluorophenyl)-2-(4-methylsulfinylphenyl)-1H-imidazol-5-yl]pyridine]
hiPSC C2 cell line; [3]
  cardiac-inducing effect: no cardiac-inducing effect
H3-Nkx2.5-GFP line [1]
  day by which EBs gave contracting cardiomyocytes: 14 to 15 days
hESC (H9) cell line
  day spontaneous beating clusters were first observed: 14 days
hESC (H9) cell line; after 21 days
  percentage of total EBs plated found to be beating: 16.6%
hiPSC C3 cell line; [3]
  cardiac-inducing effect: no cardiac-inducing effect

## COc1ccccc1-n1c(SCC(=O)Nc2nc3ccc(C)cc3s2)nc2c(c1=O)SCC2 [IWP4, 2-(3,4,6,7-tetrahydro-3-(2-methoxyphenyl)-4-oxothieno[3,2-d]pyrimidin-2-ylthio)-N-(6-methylbenzo[d]thiazol-2-yl)acetamide]
hiPSC C2 cell line; [4]
  IWP4 concentration at which induction of contracting loci peaked: 5 µM
hiPSC C3 cell line; [4]
  IWP4 concentration at which induction of contracting loci peaked: 5 µM

## VEGF
H3-Nkx2.5-GFP line [2]
  gene expression change: substantially increased gene expression levels of Wnt11
